As usually defined, the EC50 is the concentration at which the effect is half-maximal.

Experiment [1] concerns the target T1, human TGR5 receptor (Homo sapiens, UniProt Q8TDU6).
T1 construct: host or cells: CHO-K1 (hTGR5-CHO)
T1 sequence (Q8TDU6 1-330): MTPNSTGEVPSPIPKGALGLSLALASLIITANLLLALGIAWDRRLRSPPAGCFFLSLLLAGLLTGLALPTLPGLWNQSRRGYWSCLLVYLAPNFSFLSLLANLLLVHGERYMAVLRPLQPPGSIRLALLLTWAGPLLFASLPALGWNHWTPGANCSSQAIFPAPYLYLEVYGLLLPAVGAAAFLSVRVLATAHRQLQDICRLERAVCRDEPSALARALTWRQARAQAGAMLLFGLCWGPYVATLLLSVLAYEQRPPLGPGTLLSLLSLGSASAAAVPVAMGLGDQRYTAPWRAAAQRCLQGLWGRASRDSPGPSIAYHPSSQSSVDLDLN
In words: Human TGR5 cAMP production assay (hTGR5-CHO cells, DiscoveRx cAMP XS+ kit). Format: cell-based. The settings on record: luminescent cAMP assay, read-out: Human TGR5 Lum. cAMP Activity (EC50). An outline of the steps: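 EC50 values come from luminescent enzyme-complementation cAMP detection, read after overnight incubation. Beforehand, hTGR5-expressing CHO-K1 cells with IBMX and anti-cAMP antibody were exposed 1 h at room temperature to serially diluted (half-log) compounds.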

Experiment [2] relates to Mouse STC-1 cells. Kind of experiment: STC-1 GLP-1 assay (GLP-1 secretion). It counts as cell-based. The settings on record: Mouse STC-1 cells, GLP-1 secretion, 2 h; read-out: Mouse STC-1 HTRF GLP-1 Activity (EC50). A digest of the protocol: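 Secreted active GLP-1 was measured by HTRF after overnight room-temperature incubation of supernatant with the conjugates. Supernatants came from a 2 h, 37° C. compound exposure (12-point half-log series) in HBSS with DPP-IV and protease inhibitors and 0.1% fatty acid free BSA. STC-1 cells had been seeded two days earlier in stripped-serum DMEM; EC50 reported.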
Background: TR-FRET usually uses a lanthanide donor and a delayed reading to cut background.

For `O=C(CCCC1CCN(c2cc(N3CCC[C@H]3C(=O)NCCc3ccc(C(F)(F)F)cc3)nc(C(F)(F)F)n2)CC1)NCCCS(=O)(=O)O` [Compound 60, (S)-3-(4-(1-(2-(trifluoromethyl)-6-(2-((4-(trifluoromethyl)phenethyl)carbamoyl)pyrrolidin-1-yl)pyrimidin-4-yl)piperidin-4-yl)butanamido)propane-1-sulfonic acid], the EC50 in experiment [1] and in experiment [2] was less than 100 nM each time.
Consider `N#Cc1ccc(CCNC(=O)[C@@H]2CCCN2c2cc(N3CCC(CCCC(=O)NCCC(=O)O)CC3)nc(C(F)(F)F)n2)cc1` [Compound 104, (S)-3-(4-(1-(6-(2-((4-cyanophenethyl)carbamoyl)pyrrolidin-1-yl)-2-(trifluoromethyl)pyrimidin-4-yl)-piperidin-4-yl)butanamido)-propanoic acid], for which the EC50 is less than 100 nM in experiment [1] and 100 to 999 nM in experiment [2].
The matching figures for `N#Cc1ccc(CCNC(=O)[C@@H]2CCN2c2cc(N3CCC(CCNc4c(NCCS(=O)(=O)O)c(=O)c4=O)CC3)nc(C(F)(F)F)n2)cc1` [Compound 297, (S)-2-((2-((2-(1-(6-(2-((4-cyanophenethyl)carbamoyl)azetidin-1-yl)-2-(trifluoromethyl)pyrimidin-4-yl)piperidin-4-yl)ethyl)amino)-3,4-dioxocyclobut-1-en-1-yl)amino)ethanesulfonic acid]: less than 100 nM and 100 to 999 nM.
Taken in the same sequence, the figures for `O=C(O)CC[C@@H](NC(=O)CCCC1CCN(c2cc(N3CC[C@H]3C(=O)NCCc3ccc(C(F)(F)F)cc3)nc(C(F)(F)F)n2)CC1)C(=O)O` [Compound 294, (R)-2-(4-(1-(2-(trifluoromethyl)-6-((S)-2-((4-(trifluoromethyl)-phenethyl)carbamoyl)azetidin-1-yl)pyrimidin-4-yl)piperidin-4-yl)butanamido)pentanedioic acid] were less than 100 nM and less than 100 nM.
Consider `COc1cc(C(F)(F)F)ccc1CCNC(=O)[C@@H]1CCN1c1cc(N2CCC(CCC(=O)O)CC2)nc(C(F)(F)F)n1` [Compound 239, (S)-3-(1-(6-(2-((2-methoxy-4-(trifluoromethyl)phenethyl)carbamoyl)azetidin-1-yl)-2-(trifluoromethyl)pyrimidin-4-yl)piperidin-4-yl)propanoic acid], for which the EC50 in experiment [1] and in experiment [2] was less than 100 nM each time.
As to `COc1cc(C(F)(F)F)ccc1CCNC(=O)[C@@H]1CCCN1c1cc(N2CCC(CCCC(=O)NCCS(=O)(=O)O)CC2)nc(C(F)(F)F)n1` [Compound 57, (S)-2-(4-(1-(6-(2-((2-methoxy-4-(trifluoromethyl)phenethyl)carbamoyl)-pyrrolidin-1-yl)-2-(trifluoromethyl)-pyrimidin-4-yl)piperidin-4-yl)butanamido)ethanesulfonic acid], the concentration giving a half-maximal response (EC50) in experiment [1] and in experiment [2] was less than 100 nM throughout.
As for `N#Cc1ccc(CCNC(=O)[C@@H]2CCCN2c2cc(N3CCC(CCCC(=O)NCCNC(=N)N)CC3)nc(C(F)(F)F)n2)cc1` [Compound 128, (S)-N-(4-cyanophenethyl)-1-(6-(4-(4-((2-guanidinoethyl)amino)-4-oxobutyl)piperidin-1-yl)-2-(trifluoromethyl)pyrimidin-4-yl)pyrrolidine-2-carboxamide], the EC50 in experiment [1] was less than 100 nM; in experiment [2] it was 100 to 999 nM.
Taken in the same sequence, the figures for `O=C(O)CCCC1CCN(c2cc(N3CCC[C@H]3C(=O)NCCc3ccc(C(F)(F)F)cc3)nc(C(F)(F)F)n2)CC1` [Compound 9] were less than 100 nM and less than 100 nM.
In the case of `N#Cc1ccc(CCNC(=O)[C@@H]2CCCN(c3cc(N4CCC(CO)CC4)nc(C(F)(F)F)n3)C2)cc1` [Compound 308, (R)—N-(4-cyanophenethyl)-1-(6-(4-(hydroxymethyl)piperidin-1-yl)-2-(trifluoromethyl)pyrimidin-4-yl)piperidine-3-carboxamide], the figures for the EC50 in experiment [1] and in experiment [2] were less than 100 nM and 100 to 999 nM, respectively.
The matching figures for `N#Cc1ccc(CCNC(=O)[C@@H]2CCCN2c2cc(N3CCC(CCNC(=O)[C@@H](N)CS(=O)(=O)O)CC3)nc(C(F)(F)F)n2)cc1` [Compound 123, (R)-2-amino-3-((2-(1-(6-((S)-2-((4-cyanophenethyl)carbamoyl)pyrrolidin-1-yl)-2-(trifluoromethyl)pyrimidin-4-yl)piperidin-4-yl)ethyl)amino)-3-oxopropane-1-sulfonic acid]: less than 100 nM and less than 100 nM.
Taken in the same sequence, the figures for `O=C(O)CNS(=O)(=O)CCNC(=O)CCCC1CCN(c2cc(N3CCC[C@H]3C(=O)NCCc3ccc(C(F)(F)F)cc3)nc(C(F)(F)F)n2)CC1` [Compound 114, (S)-2-(2-(4-(1-(2-(trifluoromethyl)-6-(2-((4-(trifluoromethyl)phenethyl)-carbamoyl)-pyrrolidin-1-yl)pyrimidin-4-yl)piperidin-4-yl)butanamido)ethyl-sulfonamido)acetic acid] were less than 100 nM and less than 100 nM.
Taken in the same sequence, the figures for `N#Cc1ccc(CCNC(=O)[C@@H]2CCN2c2cc(N3CCC(CCCC(=O)NCS(=O)(=O)O)CC3)nc(C(F)(F)F)n2)cc1` [Compound 250, (S)-(4-(1-(6-(2-((4-cyanophenethyl)carbamoyl)azetidin-1-yl)-2-(trifluoromethyl)pyrimidin-4-yl)piperidin-4-yl)butanamido)methanesulfonic acid] were less than 100 nM and less than 100 nM.
In the case of `N#Cc1ccc(CCNC(=O)[C@@H]2CCCN2c2cc(N3CCC(CCCC(=O)O)CC3)nc(C(F)(F)F)n2)cc1` [Compound 29], the EC50 in experiment [1] was less than 100 nM; in experiment [2] it was 100 to 999 nM.
Taken in the same sequence, the figures for `N#Cc1ccc(CCNC(=O)[C@@H]2CCN2c2cc(N3CCC(CCCC(=O)NC[C@@H](O)CO)CC3)nc(C(F)(F)F)n2)cc1` [Compound 261, (S)-N-(4-cyanophenethyl)-1-(6-(4-(4-(((R)-2,3-dihydroxypropyl)amino)-4-oxobutyl)piperidin-1-yl)-2-(trifluoromethyl)pyrimidin-4-yl)azetidine-2-carboxamide] were less than 100 nM and 100 to 999 nM.
Taken in the same sequence, the figures for `N#Cc1ccc(CCNC(=O)[C@@H]2CCCN2c2cc(N3CCC(CCCC(=O)NCS(=O)(=O)O)CC3)cc(C(F)(F)F)n2)cc1` [Compound 198, (S)-(4-(1-(2-(2-((4-cyanophenethyl)carbamoyl)pyrrolidin-1-yl)-6-(trifluoromethyl)pyridin-4-yl)piperidin-4-yl)butanamido)methanesulfonic acid] were less than 100 nM and 100 to 999 nM.
Taken in the same sequence, the figures for `N[C@@H](CS(=O)(=O)O)C(=O)NCCC1CCN(c2cc(N3CC[C@H]3C(=O)NCCc3ccc(C(F)(F)F)cc3)nc(C(F)(F)F)n2)CC1` [Compound 278, (R)-2-amino-3-oxo-3-((2-(1-(2-(trifluoromethyl)-6-((S)-2-((4-(trifluoromethyl)-phenethyl)carbamoyl)azetidin-1-yl)pyrimidin-4-yl)piperidin-4-yl)ethyl)amino)-propane-1-sulfonic acid] were less than 100 nM and less than 100 nM.
Consider `N#Cc1ccc(CCNC(=O)[C@@H]2CCCN(c3cc(N4CCC(CCNC(=O)NCCC(=O)O)CC4)nc(C(F)(F)F)n3)C2)cc1` [Compound 347, (R)-3-(3-(2-(1-(6-(3-((4-cyanophenethyl)carbamoyl)piperidin-1-yl)-2-(trifluoromethyl)pyrimidin-4-yl)piperidin-4-yl)ethyl)ureido)propanoic acid], for which the EC50 in experiment [1] is less than 100 nM; in experiment [2] it was 100 to 999 nM.
Taken in the same sequence, the figures for `N#Cc1ccc(CCNC(=O)[C@@H]2CCCN2c2cc(N3CCC(CCNc4c(NCP(=O)(O)O)c(=O)c4=O)CC3)nc(C(F)(F)F)n2)cc1` [Compound 369, (S)-(((2-((2-(1-(6-(2-((4-cyanophenethyl)carbamoyl)pyrrolidin-1-yl)-2-(trifluoromethyl)pyrimidin-4-yl)piperidin-4-yl)ethyl)amino)-3,4-dioxocyclobut-1-en-1-yl)amino)methyl)phosphonic acid] were less than 100 nM and 100 to 999 nM.
Taken in the same sequence, the figures for `N#Cc1ccc(CCNC(=O)[C@@H]2CCCN2c2cc(N3CCC(CCCC(=O)NCCCS(=O)(=O)O)CC3)nc(C(F)(F)F)n2)cc1` [Compound 63, (S)-3-(4-(1-(6-(2-((4-cyanophenethyl)carbamoyl)pyrrolidin-1-yl)-2-(trifluoromethyl)pyrimidin-4-yl)-piperidin-4-yl)butanamido)propane-1-sulfonic acid] were less than 100 nM and less than 100 nM.
Taken in the same sequence, the figures for `N#Cc1ccc(CCNC(=O)[C@@H]2CCCN2c2cc(N3CCC(CCCC(=O)O)CC3)cc(C(F)(F)F)n2)cc1` [Compound 197, (S)-4-(1-(2-(2-((4-cyanophenethyl)carbamoyl)pyrrolidin-1-yl)-6-(trifluoromethyl)pyridin-4-yl)piperidin-4-yl)butanoic acid] were less than 100 nM and less than 100 nM.

Source of the values: patent US10654834B2 (Venenum Biodesign, LLC, priority 2016, dated 2020).
